PubChem BioAssay (NCI)
“And” between values parts separate entries of the source, which are not always exact repeats. Identical values can stand only once.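 Growth conditions: 96-well plates. Treatment: test compound, 48 hours, 5 concentrations. Analysis: linear interpolation between bracketing concentrations; unreached endpoints set to highest concentration. Here, GI50 denotes the concentration required for 50% inhibition of growth. TGI marks complete inhibition of growth.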

Key:
Assay in all cases: inhibition of tumour cell growth, NCI panel, 48 h
SNB-75 CNS = tested on: SNB-75 CNS
UACC-257 melanoma = tested on: UACC-257 melanoma
786-0 renal = tested on: 786-0 renal
CCRF-CEM leukemia = tested on: CCRF-CEM leukemia
HS 578T breast = tested on: HS 578T breast
BT-549 breast = tested on: BT-549 breast
TK-10 renal = tested on: TK-10 renal
MALME-3M melanoma = tested on: MALME-3M melanoma
CAKI-1 renal = tested on: CAKI-1 renal
OVCAR-8 ovarian = tested on: OVCAR-8 ovarian

Row | Compound | TGI (SNB-75 CNS) | TGI (UACC-257 melanoma) | TGI (786-0 renal) | TGI (CCRF-CEM leukemia) | TGI (HS 578T breast) | TGI (BT-549 breast) | TGI (TK-10 renal) | TGI (MALME-3M melanoma) | TGI (CAKI-1 renal) | TGI (OVCAR-8 ovarian) | GI50 (SNB-75 CNS) | GI50 (UACC-257 melanoma) | GI50 (CAKI-1 renal) | GI50 (CCRF-CEM leukemia) | GI50 (MALME-3M melanoma)
1 | NC(CC(O)(c1ccccc1)c1ccccc1)c1ccccc1S (stereo unspecified) | 28.2 µM | 43.8 µM | 29.4 µM | 40.7 µM | 51 µM | 27.8 µM | 29.7 µM | 54.8 µM | – | – | – | – | – | – | –
2 | Cc1ccc(S(=O)(=O)N/N=C2/CCC(C(C)(C)C)CC2Br)cc1 (stereo unspecified) | 87 µM | > 100 µM | 99.4 µM | 64.2 µM | 47.1 µM | 75.1 µM | > 100 µM | 31.2 µM | 69.1 µM | > 100 µM | – | – | – | – | –
3 | COc1c(C)c(C/C=C(\C)CC/C=C(\C)CC/C=C(\C)CCC=C(C)C)c(OC)c2ccccc12 | > 100 µM | > 100 µM | > 100 µM | 64.1 µM | > 100 µM | > 100 µM | > 100 µM | – | > 100 µM | > 100 µM | – | – | – | – | –
4 | Nc1nc(=O)n(C2OC(CO)C(O)C2O)c2ncc(-c3ccc(-c4ccccc4)cc3)nc12 (stereo unspecified) | > 100 µM | > 100 µM | > 100 µM | > 100 µM | > 100 µM | > 100 µM | > 100 µM | > 100 µM | > 100 µM | > 100 µM | – | – | – | – | –
5 | COC12C=CC(C=C1C#N)CC2 (stereo unspecified) (tested in a mixture with another compound) | > 100 µM | > 100 µM | > 100 µM | > 100 µM | > 100 µM | > 100 µM | > 100 µM | > 100 µM | > 100 µM | > 100 µM | – | – | – | – | –
6 | Cc1cc(N(CCC#N)CCC#N)ccc1/C=C1\SC(=S)NC1=O | 93.6 µM | > 100 µM | > 100 µM | > 100 µM | 85 µM | > 100 µM | > 100 µM | > 100 µM | > 100 µM | > 100 µM | – | – | – | – | –
7 | CCOc1ccc(/C=C2\NC(=S)N(/C=C3\C(=O)Oc4ccccc4C3=O)C2=O)cc1 | 61.6 µM | 75.8 µM | 39.5 µM | 40.4 µM | 96.2 µM | 54.9 µM | 49.6 µM | – | 53.5 µM | 36.7 µM | – | – | – | – | –
8 | COC(=O)NC(Cc1ccccc1)NC(C)=O (stereo unspecified) | > 100 µM | > 100 µM | > 100 µM | > 100 µM | > 100 µM | > 100 µM | > 100 µM | > 100 µM | > 100 µM | > 100 µM | – | – | – | – | –
9 | CCN(CC)CCOC(=O)Cc1cccc2c(=O)cc(-c3ccccc3)oc12 | 50.1 µM and 126 µM | 62.5 µM and > 154 µM | 62.5 µM | – | 62.5 µM | 61.7 µM | 52.5 µM | 62.5 µM and 165 µM | – | 62.5 µM and > 254 µM | 13 µM | 67 µM | 252 µM | 336 µM | 64.7 µM
10 | Cc1cc2oc(C)c(S(=O)(=O)NC(=O)Nc3ccc(Cl)cc3)c(=O)c2c(=O)o1 | > 100 µM | > 100 µM | > 100 µM | > 100 µM | > 100 µM | > 100 µM | > 100 µM | > 100 µM | > 100 µM | > 100 µM | – | – | – | – | –
11 | O=[N+]([O-])c1ccc(N2N=C(c3ccc4ccccc4c3O)CC2c2ccc(Cl)cc2)c([N+](=O)[O-])c1 (stereo unspecified) | > 100 µM | > 100 µM | > 100 µM | 42.7 µM | > 100 µM | > 100 µM | > 100 µM | > 100 µM | > 100 µM | > 100 µM | – | – | – | – | –
12 | COc1c2ccsc2c(OC)c2ccsc12 | > 100 µM | > 100 µM | > 100 µM | > 100 µM | > 100 µM | > 100 µM | > 100 µM | > 100 µM | 40 µM | > 100 µM | – | – | – | – | –
13 | CCOC(=O)C(NC(=O)CC)(Nc1ccc(F)c(Cl)c1)C(F)(F)F (stereo unspecified) | > 100 µM | > 100 µM | > 100 µM | > 100 µM | > 100 µM | > 100 µM | > 100 µM | > 100 µM | > 100 µM | > 100 µM | – | – | – | – | –
14 | O=C(c1ccc(O)c([N+](=O)[O-])c1)c1ccc(O)c([N+](=O)[O-])c1 | 85.7 µM | > 100 µM | > 100 µM | > 100 µM | > 100 µM | > 100 µM | > 100 µM | 98.6 µM | > 100 µM | > 100 µM | – | – | – | – | –
15 | Cc1ccc2c(C(=O)c3c(C)n(CCN4CCOCC4)c4ccccc34)cccc2c1 | – | 69.4 µM | 49 µM | 13 µM | 25.6 µM | 51.6 µM | 55.6 µM | 37.6 µM | > 100 µM | 56.1 µM | – | – | – | – | –
16 | CCOC(=O)CCC(NC(=O)Cc1ccc(Oc2nc3ccccc3nc2-c2ccccc2)cc1)C(=O)OCC (stereo unspecified) | > 100 µM | > 100 µM | > 100 µM | > 100 µM | > 100 µM | > 100 µM | > 100 µM | > 100 µM | > 100 µM | – | – | – | – | – | –
17 | COC(=O)c1cccc(OC)c1C#Cc1c(OC)cccc1OC | > 100 µM | > 100 µM | > 100 µM | > 100 µM | > 100 µM | > 100 µM | > 100 µM | > 100 µM | > 100 µM | > 100 µM | – | – | – | – | –
18 | Cc1cc(N2CCCC2)c([N+](=O)[O-])cc1[N+](=O)[O-] | > 100 µM | > 100 µM | > 100 µM | > 100 µM | > 100 µM | > 100 µM | – | > 100 µM | > 100 µM | > 100 µM | – | – | – | – | –
19 | C=Cc1nc(C#N)c(N)o1 | > 100 µM | > 100 µM | > 100 µM | > 100 µM | > 100 µM | > 100 µM | > 100 µM | > 100 µM | > 100 µM | > 100 µM | – | – | – | – | –
20 | CCCN(CCC)C1CCc2c(ccc3cc[nH]c23)C1 (stereo unspecified) | > 100 µM | 81.2 µM | > 100 µM | 73.3 µM | > 100 µM | > 100 µM | > 100 µM | > 100 µM | > 100 µM | > 100 µM | – | – | – | – | –
21 | COC1(c2cccs2)c2ccccc2C(OC)(c2cccs2)c2ccccc21 (stereo unspecified) | > 100 µM | > 100 µM | > 100 µM | > 100 µM | 19.8 µM | > 100 µM | > 100 µM | > 100 µM | > 100 µM | > 100 µM | – | – | – | – | –
